# Data taken from patent US11278503B2, “Pharmaceutical compositions comprising semifluorinated alkanes for the treatment of contact lense-related conditions” (NOVALIQ GMBH, priority 2017, dated 2022).
# Assay: Physical properties of the semifluorinated alkanes stated in the description
# Format: physicochemical
# Conditions: for refractive index: at 20° C.; for density: at 25° C.
Compound,chemical and physiological inertness (in words),solubility in water (in words),refractive index,density
"CCCCCC(F)(F)C(F)(F)C(F)(F)C(F)(F)F [F4H5, 1-perfluorobutyl-pentane]",chemically and physiologically inert,water-insoluble,1.3204,1.284 g/mL
"CCCCCCCCC(F)(F)C(F)(F)C(F)(F)C(F)(F)C(F)(F)C(F)(F)F [F6H8, 1-perfluorohexyl-octane]",chemically and physiologically inert,water-insoluble,1.3432,1.35 g/mL
